In the test the test system is GATA3 expression. Description: Immunoblot of GATA3, naive CD4+ T cells under Th2 conditions. Type of test: cell-based, mouse. To be noted: 80 µM, 5 days. The protocol:
Figure 5 Pyrrothiogatain inhibits Th2 cell differentiation and production of Th2 cytokines. (A) Intracellular staining of IL-5/IL-13, IL-4/IFN-γ, and IL-2/IFN-γ in naive CD4^+ T cells cultured under Th2 conditions in the presence or absence of pyrrothiogatain (30 and 80 µM) for five days. (B) Cytokine production induced in the pyrrothiogatain treated Th2 cells shown in panel (A) was determined by ELISA. (C) Quantitative RT-PCR analysis of the pyrrothiogatain-treated Th2 cells shown in panel (A). (D) Immunoblot analysis of GATA3 in naive CD4^+ T cells cultured under Th2 conditions in the presence or absence of pyrrothiogatain (80 µM) for 5 days. (E) Cytokine production from Th2 cells stimulated with immobilized anti-TCRβ mAb for 16 h in the presence or absence of pyrrothiogatain (0 to 100 µM). The amounts of IL-4, IL-5 and IL-13 in the culture supernatants were determined by ELSA. In (B), (C) and (E), all data are expressed as individual points of three independent experiments with error bars indicating standard deviation. […]
(In western blotting, separated proteins are transferred to a membrane and probed.)

With `Cc1ccc(C)n1-c1ccsc1C(=O)O` [Pyrrothiogatain, 3-(2,5-dimethyl-1H-pyrrol-1-yl)thiophene-2-carboxylic acid], the “Expression of GATA3, protein level” value is “not influenced”.

The values are drawn from paper PMC6874683, “Pyrrothiogatain acts as an inhibitor of GATA family proteins and inhibits Th2 cell differentiation in vitro” (Scientific Reports, 2019).
